This is an account of results in patent US20240158393A1, “PYRIDONE COMPOUNDS AND METHODS OF USE” (Exelixis, Inc., priority 2021, published 2024).

One test addresses T1, Human KDR (Homo sapiens, UniProt P35968).
T1 construct: Human KDR (residues K790-V1356, 55 nM); purchased Eurofins Pharma Discovery Services UK Limited (KinaseProfiler, B-1) and/or CarnaBio (B-2)
The test is described as follows: Human KDR kinase assay (33P radiometric / HTRF KinEase). The test is classed as biochemical. The following applies: protocols of Examples B-1 and/or B-2. In outline: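 Radiometric: KDR K790-V1356 (55 nM), MOPS pH 7.0, myelin basic protein, 10 μM [γ-33P]ATP, 40 min at room temperature, filter-bound 33P counted; nine half-log doses, top 1 μM. HTRF: KDR 790-1356, 1 μM biotinylated peptide, ATP at Km (4.0 μM), 40 min, 10 doses. IC50 from logistic fits.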
(Time-resolved FRET reads energy transfer from a long-lived donor to a nearby acceptor.)

A further test deals with T2, Human Met (Homo sapiens, UniProt P08581).
T2 construct: Human MET (residues 956-1390)
Nature of the test: Human Met kinase assay (33P radiometric / HTRF KinEase). It is filed as biochemical. As to conditions: protocols of Examples D-1 and/or D-2; read-out: c-Met IC50. In outline: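 Two formats gave IC50s by curve fitting. HTRF KinEase used MET residues 956-1390 with 1 μM biotin-peptide and 3.0 μM ATP (Km) for 40 min at room temperature, ten doses in 3% DMSO, 665/620 nm read. The 33P transfer assay used mutant Met R974-S1390 A1209G/V1290L (3.4 nM), 10 μM ATP, 250 μM peptide, pH 7.0, 40 min, nine doses from 1 μM.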

T1 sequence (P35968 790-1356): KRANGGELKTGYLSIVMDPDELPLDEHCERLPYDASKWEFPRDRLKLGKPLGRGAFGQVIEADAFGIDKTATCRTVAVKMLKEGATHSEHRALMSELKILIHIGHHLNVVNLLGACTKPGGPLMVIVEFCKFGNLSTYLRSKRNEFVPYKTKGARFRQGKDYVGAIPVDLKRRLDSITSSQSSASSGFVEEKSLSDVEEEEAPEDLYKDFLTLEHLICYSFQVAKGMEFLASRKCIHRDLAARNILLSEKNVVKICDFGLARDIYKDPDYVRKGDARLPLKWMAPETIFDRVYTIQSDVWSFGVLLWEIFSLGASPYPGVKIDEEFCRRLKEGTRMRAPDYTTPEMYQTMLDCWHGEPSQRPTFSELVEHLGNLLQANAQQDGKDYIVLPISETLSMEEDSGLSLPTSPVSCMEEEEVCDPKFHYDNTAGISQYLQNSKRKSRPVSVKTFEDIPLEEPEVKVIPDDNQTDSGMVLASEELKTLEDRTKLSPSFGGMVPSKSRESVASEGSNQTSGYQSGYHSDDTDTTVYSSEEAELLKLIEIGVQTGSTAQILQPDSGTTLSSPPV
T2 sequence (P08581 974-1390 limits assumed): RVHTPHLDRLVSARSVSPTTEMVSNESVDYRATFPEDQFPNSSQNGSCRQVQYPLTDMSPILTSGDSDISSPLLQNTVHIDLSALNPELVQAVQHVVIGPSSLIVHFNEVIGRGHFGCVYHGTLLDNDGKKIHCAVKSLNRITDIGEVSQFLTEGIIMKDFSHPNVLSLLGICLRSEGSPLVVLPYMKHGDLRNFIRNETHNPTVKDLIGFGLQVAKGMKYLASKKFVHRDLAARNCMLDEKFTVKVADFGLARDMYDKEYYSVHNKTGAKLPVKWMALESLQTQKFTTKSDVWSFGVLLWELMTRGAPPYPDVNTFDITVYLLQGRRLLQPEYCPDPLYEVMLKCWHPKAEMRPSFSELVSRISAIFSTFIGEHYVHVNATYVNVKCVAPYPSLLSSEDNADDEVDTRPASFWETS

As for `COc1cc2nccc(Oc3ccc(NC(=O)c4c(C)nc(C)c(C(=O)NC(C)C)c4O)cc3F)c2nc1OC` [Compound 94, 3-N-[4-[(6,7-Dimethoxy-1,5-naphthyridin-4-yl)oxy]-3-fluorophenyl]-4-hydroxy-2,6-dimethyl-5-N-propan-2-ylpyridine-3,5-dicarboxamide], the figures for the IC50 on Human KDR and on Human Met were at most 100 nM and above 300 nM, respectively.
In the case of `COc1cc2nccc(Oc3cc(F)c(NC(=O)c4c(C)n(C)c(C)c(C5CC5)c4=O)cc3F)c2nc1OC` [Compound 47, 5-Cyclopropyl-N-[4-[(6,7-dimethoxy-1,5-naphthyridin-4-yl)oxy]-2,5-difluorophenyl]-1,2,6-trimethyl-4-oxopyridine-3-carboxamide], the IC50 at Human KDR and on Human Met was above 300 nM in each case.
As for `COc1cc2nccc(Oc3ccc(NC(=O)c4cnc(C)c(/C=C/C5CC5)c4O)cc3F)c2nc1OC` [Compound 26, 5-[(E)-2-Cyclopropylethenyl]-N-[4-[(6,7-dimethoxy-1,5-naphthyridin-4-yl)oxy]-3-fluorophenyl]-4-hydroxy-6-methylpyridine-3-carboxamide], the IC50 at Human KDR and on Human Met was at most 100 nM throughout.
As to `COc1cc2nccc(Oc3ccc(NC(=O)c4c(C)c(Br)c(C)n(C5CCCC5)c4=O)cc3F)c2nc1OC` [Compound 22, 5-Bromo-1-cyclopentyl-N-[4-[(6,7-dimethoxy-1,5-naphthyridin-4-yl)oxy]-3-fluorophenyl]-4,6-dimethyl-2-oxopyridine-3-carboxamide], the IC50 against Human KDR was 100 to 300 nM; at Human Met it was at most 100 nM.
For `COc1cc2nccc(Oc3ccc(NC(=O)c4cnc(C)c(/C=C/CC(C)C)c4O)cc3F)c2cc1OC` [Compound 29, N-[4-(6,7-Dimethoxyquinolin-4-yl)oxy-3-fluorophenyl]-4-hydroxy-6-methyl-5-[(E)-4-methylpent-1-enyl]pyridine-3-carboxamide], in that order: at most 100 nM and at most 100 nM.
For `COc1cc2nccc(Oc3ccc(NC(=O)c4c(C)ccn(C(C)C)c4=O)cc3)c2nc1OC` [Compound 39, N-[4-[(6,7-Dimethoxy-1,5-naphthyridin-4-yl)oxy]phenyl]-4-methyl-2-oxo-1-propan-2-ylpyridine-3-carboxamide], the IC50 against Human KDR and at Human Met was above 300 nM each time.
`COc1cnc2c(Oc3ccc(NC(=O)c4cnc(C)c(C5=CCOCC5)c4O)cc3F)ccnc2c1` [Compound 1-4, 5-(3,6-Dihydro-2H-pyran-4-yl)-N-[3-fluoro-4-[(7-methoxy-1,5-naphthyridin-4-yl)oxy]phenyl]-4-hydroxy-6-methylpyridine-3-carboxamide]: the IC50 against Human KDR and at Human Met was at most 100 nM each time.
`COc1cc2nccc(Oc3ccc(NC(=O)c4c(C)nc(C)c(C(=O)NC5CC5)c4O)cc3F)c2nc1OC` [Compound 98, 5-N-Cyclopropyl-3-N-[4-[(6,7-dimethoxy-1,5-naphthyridin-4-yl)oxy]-3-fluorophenyl]-4-hydroxy-2,6-dimethylpyridine-3,5-dicarboxamide]: the IC50 is at most 100 nM at Human KDR and above 300 nM at Human Met.
The like results for `COc1cc2nccc(Oc3ccc(NC(=O)c4cnc(C)c(C5=CCCC5)c4O)cc3)c2cc1OC` [Compound 16, 5-(Cyclopenten-1-yl)-N-[4-(6,7-dimethoxyquinolin-4-yl)oxyphenyl]-4-hydroxy-6-methylpyridine-3-carboxamide] were, in that order, at most 100 nM and at most 100 nM.
As to `COc1cnc2c(Oc3ccc(NC(=O)c4c(C)nc(C)c(C(C)C)c4O)cc3F)ccnc2c1` [Compound 32, N-[3-Fluoro-4-[(7-methoxy-1,5-naphthyridin-4-yl)oxy]phenyl]-4-hydroxy-2,6-dimethyl-5-propan-2-ylpyridine-3-carboxamide], the IC50 on Human KDR and at Human Met was at most 100 nM throughout.
Take `COCCOc1cc2nccc(Oc3cc(F)c(NC(=O)c4c(C)n(C)c(C)c(C#N)c4=O)cc3F)c2nc1OC` [Compound 83, 5-Cyano-N-[2,5-difluoro-4-[[6-methoxy-7-(2-methoxyethoxy)-1,5-naphthyridin-4-yl]oxy]phenyl]-1,2,6-trimethyl-4-oxopyridine-3-carboxamide]: the IC50 against Human KDR and at Human Met was above 300 nM each time.
For `COc1cc2nccc(Oc3ccc(NC(=O)c4c(C)n(C)c(C)c(C(=O)O)c4=O)cc3F)c2nc1OC` [Compound 92, 5-[[4-[(6,7-Dimethoxy-1,5-naphthyridin-4-yl)oxy]-3-fluorophenyl]carbamoyl]-1,2,6-trimethyl-4-oxopyridine-3-carboxylic acid], the IC50 was 100 to 300 nM on Human KDR and above 300 nM at Human Met.
For `COc1cnc2c(Oc3ccc(NC(=O)c4c(C)n(C)c(C)c(C#N)c4=O)cc3F)ccnc2c1` [Compound 81, 5-Cyano-N-[3-fluoro-4-[(7-methoxy-1,5-naphthyridin-4-yl)oxy]phenyl]-1,2,6-trimethyl-4-oxopyridine-3-carboxamide], in that order: above 300 nM and above 300 nM.
For the compound `COCCOc1cc2nccc(Oc3ccc(NC(=O)c4cnc(C)c(/C=C/C5CCCC5)c4O)cc3F)c2nc1OC` [Compound 36, 5-[(E)-2-Cyclopentylethenyl]-N-[3-fluoro-4-[[6-methoxy-7-(2-methoxyethoxy)-1,5-naphthyridin-4-yl]oxy]phenyl]-4-hydroxy-6-methylpyridine-3-carboxamide], the IC50 against Human KDR and at Human Met was at most 100 nM in each case.
In the case of `COc1cc2nccc(Oc3cc(F)c(NC(=O)c4c(C)nc(C)c(C(C)C)c4O)cc3F)c2nc1OC` [Compound 10, N-[4-[(6,7-Dimethoxy-1,5-naphthyridin-4-yl)oxy]-2,5-difluorophenyl]-4-hydroxy-2,6-dimethyl-5-propan-2-ylpyridine-3-carboxamide], the IC50 at Human KDR and on Human Met was at most 100 nM in each case.
For the compound `COc1cc2nccc(Oc3ccc(NC(=O)c4c(C)n(C)c(C)c(C(=O)NC5CC5)c4=O)cc3F)c2nc1OC` [Compound 96, 3-N-Cyclopropyl-5-N-[4-[(6,7-dimethoxy-1,5-naphthyridin-4-yl)oxy]-3-fluorophenyl]-1,2,6-trimethyl-4-oxopyridine-3,5-dicarboxamide], the concentration for half-maximal inhibition (IC50) at Human KDR and at Human Met was above 300 nM each time.
With `C=C(C)n1c(C)cc(C)c(C(=O)Nc2ccc(Oc3ccnc4cc(OC)c(OC)nc34)c(F)c2)c1=O` [Compound 20, N-[4-[(6,7-Dimethoxy-1,5-naphthyridin-4-yl)oxy]-3-fluorophenyl]-4,6-dimethyl-2-oxo-1-prop-1-en-2-ylpyridine-3-carboxamide], the IC50 against Human KDR and at Human Met was at most 100 nM in each case.
Regarding `COc1cc2nccc(Oc3ccc(NC(=O)c4c(C)nc(C)c(C(C)C)c4O)cc3F)c2nc1OC` [Compound 31, N-[4-[(6,7-Dimethoxy-1,5-naphthyridin-4-yl)oxy]-3-fluorophenyl]-4-hydroxy-2,6-dimethyl-5-propan-2-ylpyridine-3-carboxamide], the IC50 against Human KDR and on Human Met was at most 100 nM throughout.
Take `COCCOc1cc2nccc(Oc3ccc(NC(=O)c4cnc(C)c(/C=C/C5CC5)c4O)cc3F)c2nc1OC` [Compound 37, 5-[(E)-2-Cyclopropylethenyl]-N-[3-fluoro-4-[[6-methoxy-7-(2-methoxyethoxy)-1,5-naphthyridin-4-yl]oxy]phenyl]-4-hydroxy-6-methylpyridine-3-carboxamide]: the IC50 against Human KDR and at Human Met was at most 100 nM each time.
Consider `COCCOc1cc2nccc(Oc3ccc(NC(=O)c4c(C)nc(C)c(C5=CCCC5)c4O)cc3F)c2nc1OC` [Compound 41, 5-(Cyclopenten-1-yl)-N-[3-fluoro-4-[[6-methoxy-7-(2-methoxyethoxy)-1,5-naphthyridin-4-yl]oxy]phenyl]-4-hydroxy-2,6-dimethylpyridine-3-carboxamide], for which the IC50 on Human KDR and on Human Met was at most 100 nM throughout.
`COc1cc2nccc(Oc3ccc(NC(=O)c4cnc(C)c(/C=C/C(C)(C)C)c4O)cc3F)c2cc1OC` [Compound 30, N-[4-(6,7-Dimethoxyquinolin-4-yl)oxy-3-fluorophenyl]-5-[(E)-3,3-dimethylbut-1-enyl]-4-hydroxy-6-methylpyridine-3-carboxamide]: the IC50 against Human KDR and at Human Met was at most 100 nM each time.
As for `C=C(C)n1c(C)cc(C)c(C(=O)Nc2ccc(Oc3ccnc4cc(OC)cnc34)c(F)c2)c1=O` [Compound 21, N-[3-Fluoro-4-[(7-methoxy-1,5-naphthyridin-4-yl)oxy]phenyl]-4,6-dimethyl-2-oxo-1-prop-1-en-2-ylpyridine-3-carboxamide], the IC50 is 100 to 300 nM against Human KDR and at most 100 nM on Human Met.
The like results for `COc1cc2nccc(Oc3ccc(NC(=O)c4c5n(cc(C6=CCCCC6)c4=O)CCOC5)cc3)c2nc1OC` [Compound G1-5, 7-(Cyclohexen-1-yl)-N-[4-[(6,7-dimethoxy-1,5-naphthyridin-4-yl)oxy]phenyl]-8-oxo-3,4-dihydro-1H-pyrido[2,1-c][1,4]oxazine-9-carboxamide] were, in that order, above 300 nM and at most 100 nM.
For `COc1cc2nccc(Oc3ccc(NC(=O)c4c(C)n(C)c(C)c(C(=O)N(C)C)c4=O)cc3F)c2nc1OC` [Compound 95, 5-N-[4-[(6,7-Dimethoxy-1,5-naphthyridin-4-yl)oxy]-3-fluorophenyl]-3-N,3-N,1,2,6-pentamethyl-4-oxopyridine-3,5-dicarboxamide], in that order: above 300 nM and above 300 nM.

As a reminder, the IC50 is the concentration needed to halve the response being measured.
